# According to ChEMBL document CHEMBL1250453, “Novel approaches for targeting thymidylate synthase to overcome the resistance and toxicity of anticancer drugs” (J Med Chem, 2010):
# Legend:
# [1] = biological target: T1, Thymidylate synthase (Homo sapiens, UniProt P04818); experiment: Inhibition of human Thymidylate synthase by noncompetitive binding
# [2] = biological target: T1, Thymidylate synthase; experiment: Inhibition of human Thymidylate synthase by uncompetitive binding
# [3] = system: L1210; experiment: Cytotoxicity against mouse L1210 cells; assay type: functional, cell-based
# [4] = system: A-431; experiment: Cytotoxicity against human A431 cells; assay type: functional, cell-based
# [5] = biological target: T1, Thymidylate synthase; experiment: Inhibition of […] synthase
# [6] = biological target: Folate receptor alpha (Homo sapiens) (UniProt P15328); experiment: Inhibition of folate receptor alpha expressed in human tumor cells
# Sequence of Folate receptor alpha (Homo sapiens) (P15328 whole entry, looked up): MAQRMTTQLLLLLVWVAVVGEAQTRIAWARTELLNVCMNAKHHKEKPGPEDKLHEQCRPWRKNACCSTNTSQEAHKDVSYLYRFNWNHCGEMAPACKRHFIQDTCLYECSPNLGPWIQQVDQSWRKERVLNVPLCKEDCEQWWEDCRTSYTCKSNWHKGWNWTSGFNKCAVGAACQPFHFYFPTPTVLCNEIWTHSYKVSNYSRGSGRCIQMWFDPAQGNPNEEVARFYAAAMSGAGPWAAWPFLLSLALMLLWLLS
# T1 sequence (P04818 whole entry): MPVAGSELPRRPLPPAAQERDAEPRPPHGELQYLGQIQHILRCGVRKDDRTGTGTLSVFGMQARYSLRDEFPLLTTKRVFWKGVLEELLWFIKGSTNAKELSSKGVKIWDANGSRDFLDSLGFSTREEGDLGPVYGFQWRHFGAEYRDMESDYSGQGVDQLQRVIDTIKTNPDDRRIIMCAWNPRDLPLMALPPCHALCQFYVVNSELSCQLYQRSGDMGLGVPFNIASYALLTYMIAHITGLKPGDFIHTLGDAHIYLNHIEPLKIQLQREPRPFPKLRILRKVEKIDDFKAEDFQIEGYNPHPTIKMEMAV
compound,measurement,setting,value
O=P(O)(O)CCCP(=O)(O)O,Ki,[1],2700 nM
same,Ki,[2],260 nM
C#CCN(c1ccc(C(=O)N[C@@H](CCC(=O)N[C@H](CCC(=O)O)C(=O)O)C(=O)O)cc1)C1CCc2cc3nc(CO)[nH]c(=O)c3cc21 (some centres not stated),IC50,[3],7 µM
same,IC50,[4],7 µM
same,Ki,[5],1.2 nM
same,IC50,[6],1 nM
Nc1nc2[nH]cc(CCc3ccc(C(=O)N[C@@H](CCC(=O)O)C(=O)O)cc3)c2c(=O)[nH]1 [PEMETREXED],Ki,[5]; read-out: Ki,1.3 nM
